Patent US20260224758A1, “ALPHA-SYNUCLEIN BINDERS AND METHODS OF USE” (Merck Sharp & Dohme LLC, priority 2023, published 2026)
Read-outs that look alike come from different tables or passages of the source.

Tests used:
[1] = molecular target: T1, triton-extracted alpha-synuclein from PD Tissue (Homo sapiens, UniProt P37840); test: Alpha-synuclein tissue homogenate binding assay (Assay 1), displacement of [^3H]-1000; details: for Selectivity ratio (Assay 2/Assay 1): Aβ Tissue Ki / α-synuclein Tissue Ki; for Ki: read-out: α-synuclein Tissue Ki (Assay 1)
T1 construct: tissue Analytic Biological Services Inc; host or cells: human PD temporal cortex grey matter, Triton X-100 insoluble pellet

[2] = molecular target: aggregated beta amyloid in AD tissue (Homo sapiens, UniProt P05067); test: Competitive radioligand binding to pathological aggregated beta amyloid in AD tissue (Assay 2), displacement of [^3H]-105; details: Aβ-rich AD frontal cortex homogenate, [^3H]-105, Kd 11.0 nM
Sequence of aggregated beta amyloid in AD tissue (P05067 672-711 limits assumed): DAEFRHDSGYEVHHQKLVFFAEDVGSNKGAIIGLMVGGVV

[3] = insoluble fraction of PD brain homogenate, [^3H]-1000 3.0 nM, Kd 0.90 nM

SMILES | Selectivity ratio (Assay 2/Assay 1) [1] | Ki [1, 3] | Ki [2] | Ki [1]
COC[C@H]1CN(c2ncc(/C=C/c3ccc(-c4cnn(CCF)c4)nc3)cn2)CCN1c1ncccn1 [Example 37, (R,E)-5-(2-(6-(1-(2-fluoroethyl)-1H-pyrazol-4-yl)pyridin-3-yl)vinyl)-2-(3-(methoxymethyl)-4-(pyrimidin-2-yl)piperazin-1-yl)pyrimidine] | 1935 | 0.62 nM | ≥ 1200 nM | 
OCC(F)COC[C@H]1CN(c2ncc(C#Cc3ccc(-n4ccnc4)nc3)cn2)CCN1c1ncccn1 (stereo partly drawn) [Example 63, 3-(((R)-4-(5-((6-(1H-imidazol-1-yl)pyridin-3-yl)ethynyl)pyrimidin-2-yl)-1-(pyrimidin-2-yl)piperazin-2-yl)methoxy)-2-fluoropropan-1-ol] | 1314 | 0.913 nM | ≥ 1200 nM | 
COC[C@H]1CN(c2cc(F)ccn2)CCN1c1ncc(/C=C/c2ccc(N3CCOCC3)nc2)cn1 [Example 16, (R,E)-4-(5-(2-(2-(4-(4-fluoropyridin-2-yl)-2-(methoxymethyl)piperazin-1-yl)pyrimidin-5-yl)vinyl)pyridin-2-yl)morpholine] | 281 | 1.6 nM | 450 nM | 
FCCOC[C@H]1CN(c2ncc(C#Cc3ccc(-n4cnnc4)nc3)cn2)CCN1c1ncccn1 [Example 71, (R)-5-((6-(4H-1,2,4-triazol-4-yl)pyridin-3-yl)ethynyl)-2-(3-((2-fluoroethoxy)methyl)-4-(pyrimidin-2-yl)piperazin-1-yl)pyrimidine] | 293 | 4.09 nM | ≥ 1200 nM | 
Cn1cc(-c2ccc(C#Cc3cnc(N4CCN(c5ncncn5)[C@@H](COCCF)C4)nc3)cn2)cn1 [Example 50, (R)-2-(2-((2-fluoroethoxy)methyl)-4-(5-((6-(1-methyl-1H-pyrazol-4-yl)pyridin-3-yl)ethynyl)pyrimidin-2-yl)piperazin-1-yl)-1,3,5-triazine] | 2673 | 0.449 nM | ≥ 1200 nM | 
COC[C@H]1CN(c2ncc(/C=C/c3ccc(-n4ccnc4)nc3)cn2)CCN1c1ncc(CF)cn1 [Example 8, (R,E)-5-(2-(6-(1H-imidazol-1-yl)pyridin-3-yl)vinyl)-2-(4-(5-(fluoromethyl)pyrimidin-2-yl)-3-(methoxymethyl)piperazin-1-yl)pyrimidine] | 10909 | 1.1 nM | ≥ 12000 nM | 
FCCOC[C@H]1CN(c2ncc(C#Cc3ccc(N4CCn5cnnc5C4)nc3)cn2)CCN1c1ncncn1 [Example 75, (R)-7-(5-((2-(3-((2-fluoroethoxy)methyl)-4-(1,3,5-triazin-2-yl)piperazin-1-yl)pyrimidin-5-yl)ethynyl)pyridin-2-yl)-5,6,7,8-tetrahydro-[1,2,4]triazolo[4,3-a]pyrazine] | 1312 | 0.915 nM | ≥ 1200 nM | 
COC[C@H]1CN(c2cc3cnccn3c2)CCN1c1ncc(/C=C/c2ccc(-n3cccn3)nc2)cn1 [Example 21, (R,E)-7-(4-(5-(2-(6-(1H-pyrazol-1-yl)pyridin-3-yl)vinyl)pyrimidin-2-yl)-3-(methoxymethyl)piperazin-1-yl)pyrrolo[1,2-a]pyrazine] | 10000 |  | 13000 nM | 1.3 nM
Cn1cc(-c2ncc(C#Cc3cnc(N4CCN(c5ncncn5)[C@@H](COCCOCCF)C4)nc3)cn2)cn1 [Example 78, (R)-2-(2-((2-(2-fluoroethoxy)ethoxy)methyl)-4-(5-((2-(1-methyl-1H-pyrazol-4-yl)pyrimidin-5-yl)ethynyl)pyrimidin-2-yl)piperazin-1-yl)-1,3,5-triazine] | 753 | 1.59 nM | ≥ 1200 nM | 
OC(CF)COC[C@H]1CN(c2ncc(C#Cc3ccc(-c4cnco4)nc3)cn2)CCN1c1ncncn1 (stereo partly drawn) [Example 67, 1-fluoro-3-(((R)-4-(5-((6-(oxazol-5-yl)pyridin-3-yl)ethynyl)pyrimidin-2-yl)-1-(1,3,5-triazin-2-yl)piperazin-2-yl)methoxy)propan-2-ol] | 798 | 1.5 nM | ≥ 1200 nM | 
